For orientation: Kd means the constant that tells how readily two partners part at equilibrium. The term IC50 denotes the midpoint of a concentration-inhibition curve. Low readings indicate inhibition by little substance, high ones a need for much substance.

Four compounds from ChEMBL document CHEMBL4673295 (Bioorg Med Chem, 2021) can be followed below.

Assay [1] is described as follows: Binding affinity to Escherichia coli BL21 (DE3) HPPK in presence of ATP and MgCl2 by fluorimetry.
Assay [2] is described as follows: Binding affinity to Escherichia coli HPPK by isothermal titration calorimetry.
A short description of assay [3]: Inhibition of Escherichia coli HPPK incubated for 30 mins by thin layer chromatography.
A short description of assay [4]: Binding affinity to Escherichia coli BL21 (DE3) HPPK incubated for 10 mins by fluorimetry.

Take `Nc1nc2c(c(=O)[nH]1)N=C(CO)CN2`: the Kd in assay [1] was 170 nM.
In the case of `CC1(C)Nc2nc(N)[nH]c(=O)c2N=C1C(=O)NCCN1CC[C@@H](S(=O)(=O)C[C@H]2O[C@@H](n3cnc4c(N)ncnc43)[C@H](O)[C@@H]2O)C[C@@H]1C(=O)O`, the dissociation constant (Kd) in assay [2] came out at 47 nM.
With `CC1(C)Nc2nc(N)[nH]c(=O)c2N=C1C(=O)NCCN1CC[C@@H](SC[C@H]2O[C@@H](n3cnc4c(N)ncnc43)[C@H](O)[C@@H]2O)C[C@@H]1C(=O)O`, binding in assay [2] was put at a Kd of 190 nM. The midpoint of inhibition in assay [3], the IC50, lay at 380 nM.
In assay [4], `Nc1ncnc2c1ncn2[C@@H]1O[C@H](COP(=O)(O)OP(=O)(O)OP(=O)(O)O)[C@@H](O)[C@H]1O` [ADENOSINE TRIPHOSPHATE] came in with a Kd of 2600 nM.
